According to patent US20240041042A1, “1-(PYRIDYL)-5-AZINYLPYRAZOLE DERIVATIVES, AND THEIR USE FOR CONTROL OF UNDESIRED PLANT GROWTH” (Bayer Aktiengesellschaft, priority 2020, published 2024):

Experiments:
Type in all cases: in vivo
[1] = tested on: Alopecurus myosuroides (ALOMY); assay: Pre-emergence herbicidal action against ALOMY; settings: scored visually after about 3 weeks, 100% = plants have died
Method in brief: (§1)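 Dosages of 320 g/ha or less; pre-emergence; WP or EC in aqueous spray, 0.5% additive, 600 l/ha; greenhouse; visual % effect after ~3 wk relative to control pots.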

[2] = tested on: Amaranthus retroflexus (AMARE); assay: Pre-emergence herbicidal action against AMARE; settings: visual scoring after about 3 weeks vs untreated controls
Method in brief: as §1

Avena fatua (AVEFA) [3] = assay: Pre-emergence herbicidal action against AVEFA; settings: visual scoring after about 3 weeks vs untreated controls
Method in brief: as §1

[4] = tested on: Echinochloa crus-galli (ECHCG); assay: Pre-emergence herbicidal action against ECHCG
Method in brief: as §1

Lolium rigidum (LOLRI) [5] = assay: Pre-emergence herbicidal action against LOLRI
Method in brief: as §1

[6] = tested on: Matricaria inodora (MATIN); assay: Pre-emergence herbicidal action against MATIN; settings: dosage 320 g/ha
Method in brief: as §1

[7] = tested on: Pharbitis purpurea (PHBPU); assay: Pre-emergence herbicidal action against PHBPU; settings: dosage 320 g/ha
Method in brief: as §1

[8] = tested on: Polygonum convolvulus (POLCO); assay: Pre-emergence herbicidal action against POLCO
Method in brief: as §1

Setaria viridis (SETVI) [9] = assay: Pre-emergence herbicidal action against SETVI
Method in brief: as §1

[10] = tested on: Verconica persica (VERPE); assay: Pre-emergence herbicidal action against VERPE; settings: dosage 320 g/ha
Method in brief: as §1

Viola tricolor (VIOTR) [11] = assay: Pre-emergence herbicidal action against VIOTR
Method in brief: as §1

[12] = tested on: Abutilon theophrasti (ABUTH); assay: Post-emergence herbicidal action against ABUTH; settings: visual rating about 3 weeks after treatment vs untreated controls (100% = plants have died, 0% = like control plants)
Method in brief: (§2)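 Values are percent visual activity (0% like control, 100% plants dead) after about 3 weeks in the greenhouse. Treatment: post-emergence spray at one-leaf stage, 600 l/ha spray volume, 0.5% additive, doses 320 g/ha or lower.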

[13] = tested on: Alopecurus myosuroides (ALOMY); assay: Post-emergence herbicidal action against ALOMY; settings: visual rating about 3 weeks after treatment vs untreated controls (100% = plants have died, 0% = like control plants)
Method in brief: as §2

[14] = tested on: Amaranthus retroflexus (AMARE); assay: Post-emergence herbicidal action against AMARE
Method in brief: as §2

Avena fatua (AVEFA) [15] = assay: Post-emergence herbicidal action against AVEFA; settings: visual rating about 3 weeks after treatment
Method in brief: as §2

[16] = tested on: Echinochloa crus-galli (ECHCG); assay: Post-emergence herbicidal action against ECHCG
Method in brief: as §2

Lolium rigidum (LOLRI) [17] = assay: Post-emergence herbicidal action against LOLRI
Method in brief: as §2

[18] = tested on: Matricaria inodora (MATIN); assay: Post-emergence herbicidal action against MATIN
Method in brief: as §2

[19] = tested on: Pharbitis purpurea (PHBPU); assay: Post-emergence herbicidal action against PHBPU; settings: dosage 320 g/ha
Method in brief: as §2

[20] = tested on: Polygonum convolvulus (POLCO); assay: Post-emergence herbicidal action against POLCO
Method in brief: as §2

Setaria viridis (SETVI) [21] = assay: Post-emergence herbicidal action against SETVI
Method in brief: as §2

[22] = tested on: Verconica persica (VERPE); assay: Post-emergence herbicidal action against VERPE
Method in brief: as §2

Viola tricolor (VIOTR) [23] = assay: Post-emergence herbicidal action against VIOTR
Method in brief: as §2

Oryza sativa (ORYSA) = settings: crop plant compatibility, 80 g/ha, effect in comparison to untreated controls
Method in brief: (§3)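 Foliar application at the one-leaf stage: WP/EC formulation, 0.5% additive, 600 l/ha water. Greenhouse-grown in sandy loam. Endpoint is visual % injury relative to untreated controls at about 3 weeks.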

Zea mays (ZEAMX) = settings: crop plant compatibility, 80 g/ha, effect vs untreated controls
Method in brief: as §3

[24] = 80 g/ha, visual rating about 3 weeks after treatment vs untreated controls (100% = plants have died, 0% = like control plants)
[25] = 320 g/ha, visual rating about 3 weeks after treatment

Row | SMILES | Pre-emergence action against ALOMY ([1]; 80 g/ha) [%] | Pre-emergence action against ALOMY ([1]; 320 g/ha) [%] | Pre-emergence action against AMARE in % ([2]; 80 g/ha) [%] | Pre-emergence action against AMARE in % ([2]; 320 g/ha) [%] | Pre-emergence action against AVEFA in % (Avena fatua (AVEFA) [3]; 320 g/ha) [%] | Pre-emergence action against ECHCG in % ([4]; dosage 80 g/ha) [%] | Pre-emergence action against ECHCG in % ([4]; dosage 320 g/ha) [%] | Pre-emergence action against LOLRI in % (Lolium rigidum (LOLRI) [5]; dosage 320 g/ha) [%] | Pre-emergence action against MATIN in % [6] [%] | Pre-emergence action against PHBPU in % [7] [%] | Pre-emergence action against POLCO in % ([8]; dosage 320 g/ha) [%] | Pre-emergence action against SETVI in % (Setaria viridis (SETVI) [9]; dosage 80 g/ha) [%] | Pre-emergence action against SETVI in % (Setaria viridis (SETVI) [9]; dosage 320 g/ha) [%] | Pre-emergence action against VERPE in % [10] [%] | Pre-emergence action against VIOTR in % (Viola tricolor (VIOTR) [11]; 320 g/ha, Viola tricolor) [%] | Pre-emergence action against VIOTR in % (Viola tricolor (VIOTR) [11]; dosage 80 g/ha) [%] | Post-emergence action against ALOMY in % ([13]; 320 g/ha) [%] | Post-emergence action against AMARE in % [14, 24] [%] | Post-emergence action against AMARE in % [14, 25] [%] | Post-emergence action against AVEFA in % (Avena fatua (AVEFA) [15]; 320 g/ha) [%] | further results
1 | COC(=O)COc1nn(-c2ncccc2F)c(-c2ccc(F)nc2)c1C1CC1 [Example I-42] | 100 | 100 | 90 | 100 | 100 | 100 | 100 | 100 | 100 | 90 | 90 | 100 | 100 | 100 | 100 | 100 | 100 | 90 | 90 | 100 | Post-emergence action against ABUTH in % ([12]; 80 g/ha): 90%; Post-emergence action against ABUTH in % ([12]; 320 g/ha): 90%; Post-emergence action against ALOMY in % ([13]; 80 g/ha): 100%; Post-emergence action against AVEFA in % (Avena fatua (AVEFA) [15]; 80 g/ha): 100%; Post-emergence action against ECHCG in % ([16]; dosage 80 g/ha): 90%; Post-emergence action against ECHCG in % ([16]; dosage 320 g/ha): 90%; Post-emergence action against LOLRI in % (Lolium rigidum (LOLRI) [17]; dosage 80 g/ha): 100%; Post-emergence action against LOLRI in % (Lolium rigidum (LOLRI) [17]; dosage 320 g/ha): 100%; Post-emergence action against MATIN in % ([18]; dosage 80 g/ha): 80%; Post-emergence action against MATIN in % ([18]; dosage 320 g/ha): 90%; Post-emergence action against PHBPU in % [19]: 90%; Post-emergence action against POLCO in % ([20]; dosage 80 g/ha): 80%; Post-emergence action against POLCO in % ([20]; dosage 320 g/ha): 90%; Post-emergence action against SETVI in % (Setaria viridis (SETVI) [21]; dosage 80 g/ha): 90%; Post-emergence action against SETVI in % (Setaria viridis (SETVI) [21]; dosage 320 g/ha): 90%; Post-emergence action against VERPE in % ([22]; 320 g/ha, VERPE): 90%; Post-emergence action against VERPE in % ([22]; dosage 80 g/ha): 90%; Post-emergence action against VIOTR in % (Viola tricolor (VIOTR) [23]; 80 g/ha): 90%; Post-emergence action against VIOTR in % (Viola tricolor (VIOTR) [23]; 320 g/ha): 90%
2 | C[C@@H](Oc1nn(-c2ccccn2)c(-c2ccc(F)nc2)c1Cl)C(=O)NCC(=O)O [Example I-338] | 100 | 100 | 100 | 100 | 90 | 90 | 100 | 100 | 80 | 80 | 100 | 100 | 100 | 100 | 100 | 100 | 90 | 80 | 80 | 90 | Pre-emergence action against AVEFA in % (Avena fatua (AVEFA) [3]; 80 g/ha): 90%; Pre-emergence action against LOLRI in % (Lolium rigidum (LOLRI) [5]; dosage 80 g/ha): 100%; Pre-emergence action against POLCO in % ([8]; dosage 80 g/ha): 100%; Post-emergence action against ECHCG in % ([16]; dosage 320 g/ha): 80%; Post-emergence action against LOLRI in % (Lolium rigidum (LOLRI) [17]; dosage 320 g/ha): 90%; Post-emergence action against MATIN in % ([18]; dosage 320 g/ha): 90%; Post-emergence action against POLCO in % ([20]; dosage 80 g/ha): 80%; Post-emergence action against POLCO in % ([20]; dosage 320 g/ha): 80%; Post-emergence action against SETVI in % (Setaria viridis (SETVI) [21]; dosage 80 g/ha): 90%; Post-emergence action against SETVI in % (Setaria viridis (SETVI) [21]; dosage 320 g/ha): 90%; Post-emergence action against VERPE in % ([22]; 320 g/ha, VERPE): 90%; Post-emergence action against VIOTR in % (Viola tricolor (VIOTR) [23]; 320 g/ha): 80%; Post-emergence action against ORYSA in % (Oryza sativa (ORYSA)): 0%; Post-emergence action against ZEAMX in % (Zea mays (ZEAMX)): 0%
